Data reported in PubChem BioAssay AID330 (DTP/NCI, 2004).
Several values for one entry are separate records, joined by “and”; a condition that tells them apart may be missing. Identical values can stand only once. Inconclusive results and toxic doses are left out. The calls were made as follows: active = survival T/C of 150% or more; inactive = T/C below 125% in these data.

System: P388 leukemia ip, CD2F1 mice, survival T/C
Experiment: NCI In Vivo Anticancer Drug Screen. Data for tumor model P388 Leukemia (intraperitoneal) in CD2F1 (CDF1) mice
Conditions: endpoint: median survival time, higher = longer survival
Summary of the method: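 Mice carrying the transplanted tumor received test compound or vehicle. Survival was recorded in each group, and the value is the treated-group measurement divided by that of the vehicle-treated control group.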

[1] = dose: 60.0 mg/kg/injection, schedule: Q01DX005 (ip), vehicle: saline with Tween-80
[2] = dose: 120.0 mg/kg/injection, schedule: Q01DX005 (ip), vehicle: saline with Tween-80
[3] = dose: 240.0 mg/kg/injection, schedule: Q01DX005 (ip), vehicle: saline with Tween-80
[4] = dose: 100.0 mg/kg/injection, schedule: Q01DX009 (ip), vehicle: Klucel (hydroxypropylcellulose) (HPC)
[5] = dose: 50.0 mg/kg/injection, schedule: Q01DX005 (ip), vehicle: saline
[6] = dose: 100.0 mg/kg/injection, schedule: Q01DX005 (ip), vehicle: saline
[7] = dose: 60.0 mg/kg/injection, schedule: Q01DX005 (ip), vehicle: Klucel (hydroxypropylcellulose) (HPC)
[8] = dose: 120.0 mg/kg/injection, schedule: Q01DX005 (ip), vehicle: Klucel (hydroxypropylcellulose) (HPC)
[9] = dose: 240.0 mg/kg/injection, schedule: Q01DX005 (ip), vehicle: Klucel (hydroxypropylcellulose) (HPC)
[10] = dose: 25.0 mg/kg/injection, schedule: Q01DX009 (ip), vehicle: saline with Tween-80
[11] = dose: 50.0 mg/kg/injection, schedule: Q01DX009 (ip), vehicle: saline with Tween-80
[12] = dose: 100.0 mg/kg/injection, schedule: Q01DX009 (ip), vehicle: saline with Tween-80
[13] = dose: 50.0 mg/kg/injection, schedule: Q01DX005 (ip), vehicle: Klucel (hydroxypropylcellulose) (HPC)
[14] = dose: 100.0 mg/kg/injection, schedule: Q01DX005 (ip), vehicle: Klucel (hydroxypropylcellulose) (HPC)
[15] = dose: 50.0 mg/kg/injection, schedule: Q01DX005 (ip), vehicle: saline with Tween-80
[16] = dose: 100.0 mg/kg/injection, schedule: Q01DX005 (ip), vehicle: saline with Tween-80
[17] = dose: 100.0 mg/kg/injection, schedule: Q01DX001 (ip), vehicle: saline with Tween-80
[18] = dose: 200.0 mg/kg/injection, schedule: Q01DX001 (ip), vehicle: saline with Tween-80
[19] = dose: 400.0 mg/kg/injection, schedule: Q01DX001 (ip), vehicle: saline with Tween-80
[20] = dose: 200.0 mg/kg/injection, schedule: Q01DX009 (ip), vehicle: saline with Tween-80
[21] = dose: 200.0 mg/kg/injection, schedule: Q01DX005 (ip), vehicle: Klucel (hydroxypropylcellulose) (HPC)
[22] = dose: 50.0 mg/kg/injection, schedule: Q01DX009 (ip), vehicle: saline
[23] = dose: 100.0 mg/kg/injection, schedule: Q04DX003 (ip), vehicle: saline with Tween-80
[24] = dose: 200.0 mg/kg/injection, schedule: Q04DX003 (ip), vehicle: saline with Tween-80

Measured: T/C

O=C(CN1CCN(c2ccccc2)CC1)n1ccnc1
inactive: [1] 95 % of control | [2] 97 % of control | [3] 100 % of control

Cc1ccc(S(=O)(=O)OCC2CCCC2COS(=O)(=O)c2ccc(C)cc2)cc1 (stereo unspecified)
inactive: [4] 100 % of control | dose: 200.0 mg/kg/injection, schedule: Q01DX009 (ip), vehicle: Klucel (hydroxypropylcellulose) (HPC) 106 % of control | dose: 400.0 mg/kg/injection, schedule: Q01DX009 (ip), vehicle: Klucel (hydroxypropylcellulose) (HPC) 105 % of control

CCNc1ccc(C(=O)c2cccc(N)c2)cc1N
inactive: [1] 96 % of control | [2] 96 % of control | [3] 89 % of control

CN(C)CCN(N)CCN(C)C
inactive: [5] 94 % of control | [6] 105 % of control | dose: 200.0 mg/kg/injection, schedule: Q01DX005 (ip), vehicle: saline 100 % of control

Cc1cc2c(c(O)cc(=O)n2C)c(=O)n1C
inactive: [7] 102 % of control | [8] 91 % of control | [9] 91 % of control

CCOc1n[n+]([O-])c(Cl)cc1[N+](=O)[O-]
inactive: [10] 103 % of control | [11] 102 % of control | [12] 100 % of control

Cc1ccccc1C(C)C[n+]1cccc(C)c1C (stereo unspecified)
inactive: dose: 6.25 mg/kg/injection, schedule: Q01DX005 (ip), vehicle: saline with Tween-80 101 % of control | dose: 12.5 mg/kg/injection, schedule: Q01DX005 (ip), vehicle: saline with Tween-80 101 % of control

CC1CCC(C(C)C)C(NC(=O)c2cc[n+](C)cc2)C1 (stereo unspecified)
inactive: [13] 100 % of control | [14] 108 % of control

COC1=C(OC)C(=O)C(Sc2ccc3ccccc3c2)=CC1=O
inactive: dose: 6.25 mg/kg/injection, schedule: Q01DX009 (ip), vehicle: saline with Tween-80 103 % of control and 104 % of control | dose: 12.5 mg/kg/injection, schedule: Q01DX009 (ip), vehicle: saline with Tween-80 104 % of control | [10] 104 % of control and 119 % of control | [11] 100 % of control and 111 % of control | [12] 100 % of control

Cc1c(-c2ccccc2)oc(=O)c(Cl)c1N(C)C
inactive: [15] 102 % of control | [16] 100 % of control | dose: 200.0 mg/kg/injection, schedule: Q01DX005 (ip), vehicle: saline with Tween-80 100 % of control

CN(C)C(=S)/N=C1\SCS(=O)(=O)N1C
inactive: [10] 91 % of control | [11] 110 % of control | [12] 100 % of control

Cn1c2cc(O)cc(O)c2c(=O)c2cccc([N+](=O)[O-])c21
inactive: [17] 104 % of control | [18] 103 % of control | [19] 101 % of control

C[C@]12CCC(=O)C=C1CC[C@@H]1[C@@H]2[C@@H](O)C[C@@]2(C)[C@H]1CC[C@]2(O)C(=O)COC(=O)c1ccc([N+](=O)[O-])cc1Cl
inactive: [11] 109 % of control | [12] 100 % of control | [20] 109 % of control and 86 % of control | dose: 400.0 mg/kg/injection, schedule: Q01DX009 (ip), vehicle: saline with Tween-80 86 % of control

CC1(C)COC(=O)C(C(=O)O)=C1C(=O)O
inactive: [11] 90 % of control | [12] 87 % of control | [20] 90 % of control

O=C1C2CC3OC3CC2C(=O)N1CN1C(=O)C2CC3OC3CC2C1=O (stereo unspecified)
inactive: [13] 106 % of control | [14] 91 % of control | [21] 89 % of control

O=C(Sc1ccccc1)C1CC=CCC1 (stereo unspecified)
inactive: dose: 50.0 mg/kg/injection, schedule: Q01DX009 (ip), vehicle: Klucel (hydroxypropylcellulose) (HPC) 109 % of control | [4] 105 % of control

S=C(Nc1cc(Cl)cc(Cl)c1)SCc1ccccc1
inactive: [22] 100 % of control | dose: 100.0 mg/kg/injection, schedule: Q01DX009 (ip), vehicle: saline 99 % of control | dose: 200.0 mg/kg/injection, schedule: Q01DX009 (ip), vehicle: saline 107 % of control

CN(C)CC(O)c1cc2ccccc2c2ccccc12 (stereo unspecified)
inactive: dose: 12.5 mg/kg/injection, schedule: Q01DX009 (ip), vehicle: saline 106 % of control | dose: 25.0 mg/kg/injection, schedule: Q01DX009 (ip), vehicle: saline 103 % of control | [22] 100 % of control

CC(=O)OCc1c([O-])on[n+]1-c1ccccc1
inactive: [13] 100 % of control | [14] 102 % of control | [21] 102 % of control

CC(C)(C)c1cc(CO)c(Sc2c(CO)cc(C(C)(C)C)cc2CO)c(CO)c1
inactive: dose: 12.5 mg/kg/injection, schedule: Q01DX001 (ip), vehicle: saline with Tween-80 92 % of control | dose: 25.0 mg/kg/injection, schedule: Q01DX001 (ip), vehicle: saline with Tween-80 100 % of control | dose: 50.0 mg/kg/injection, schedule: Q01DX001 (ip), vehicle: saline with Tween-80 95 % of control

CCCCCC(=O)C(C)C1(C(=O)OC)NC(=S)NC(=O)C1C#N (stereo unspecified)
inactive: [7] 105 % of control | [8] 98 % of control | [9] 97 % of control

CCCn1c(Cl)c(/C=N\Nc2cccc([N+](=O)[O-])c2)c2ccccc21
inactive: [17] 91 % of control | [18] 92 % of control | [19] 91 % of control

C=CCSc1ncnc2nc[nH]c12
inactive: [11] 100 % of control | [12] 109 % of control | [23] 104 % of control | [24] 104 % of control

CC1CCCC2CC3CCCCC3OCN12 (stereo unspecified)
inactive: dose: 100.0 mg/kg/injection, schedule: Q04DX003 (ip), vehicle: saline 109 % of control | dose: 200.0 mg/kg/injection, schedule: Q04DX003 (ip), vehicle: saline 104 % of control | dose: 400.0 mg/kg/injection, schedule: Q04DX003 (ip), vehicle: saline 104 % of control

c1ccc(P(CCNCCP(c2ccccc2)c2ccccc2)c2ccccc2)cc1
inactive: [15] 105 % of control | [16] 109 % of control

CC(=O)OCC12CCC(C)=CC1OC1C(=O)CC2(C)C12CO2 (stereo unspecified)
inactive: dose: 0.5 mg/kg/injection, schedule: Q01DX009 (ip), vehicle: saline 100 % of control | dose: 1.0 mg/kg/injection, schedule: Q01DX009 (ip), vehicle: saline 101 % of control | dose: 2.0 mg/kg/injection, schedule: Q01DX009 (ip), vehicle: saline 94 % of control | dose: 4.0 mg/kg/injection, schedule: Q01DX009 (ip), vehicle: saline 110 % of control

CCCCNC(=O)OCCN(CCOC(=O)NCCCC)C(=O)N1c2ccccc2Sc2ccccc21
inactive: dose: 50.0 mg/kg/injection, schedule: Q04DX003 (ip), vehicle: saline with Tween-80 98 % of control | [23] 90 % of control | [24] 90 % of control

CCN(CC)CCCNc1cc(OC)cc2nc3ccccc3nc12
inactive: dose: 12.5 mg/kg/injection, schedule: Q01DX005 (ip), vehicle: saline 104 % of control | dose: 25.0 mg/kg/injection, schedule: Q01DX005 (ip), vehicle: saline 104 % of control | [5] 99 % of control and 112 % of control | [6] 114 % of control
